Measurements taken from patent US20260109727A1, “RNA CONSTRUCTS AND USES THEREOF” (BioNTech SE, priority 2022, published 2026).
Entries after “also recorded” stand apart in the source; their conditions may differ.

Assays:
BALB/c mice = test: Hematocrit in mice IV injected with 3 μg TransIT-complexed EPO mRNA; format: in vivo
Protocol: To confirm in vitro data, female BALB/c mice from Jackson Laboratory (Bar Harbor, ME, USA) at the age of eight to ten weeks were used for in vivo experiment in accordance with federal policies on animal research (Ethics approval number: G18-12-027). Mice (n=3/group) were injected intravenously (i.v.) with 3 μg TransIT-complexed (Mirus Bio) EPO mRNAs in a final volume of 200 μL Dulbecco's modified Eagle medium (DMEM). Mice used as controls were injected with TransIT-reagent diluted in DMEM but without RNA. Mice were injected with EPO mRNA complexed with TransIT-reagent and EPO levels in plasma were measured using ELISA (FIG. 8A). Hematocrit was measured from 18 μl of blood that was collected at the indicated times using centrifugation in Drummond microcaps glass capillary tubes (20 μl volume, Merck, Germany) as described (20) (FIG. 8B). After determination of the hematocrit, capillary tubes were snapped open, and the plasma was collected to measure EPO levels and analyzed for mouse Erythropoietin DuoSet ELISA kit (R&D Systems) according to the manufacturer's instructions. […] EPO RNA containing m1Ψ translated two-fold more than U-containing mRNA at each time points (FIG. 8A). Both compound I′-1 and compound I′-6 are suitable for translation of the encoded protein and each cap analog can be used for synthesizing of non-replicating functional mRNAs (FIG. 8A, 8B).
In each in vivo experiment in order to measure the translational efficiency and to determine the functionality of EPO mRNA capped with I′-1, I′-2, I′-3, I′-5, I′-6, I′-9, I′-12, I′-13, I′-16, CC114, and CC413 in vivo, female BALB/c mice from Jackson Laboratory (Bar Harbor, ME, USA) at the age of eight to ten weeks were used for in accordance with federal policies on animal research (Ethics approval number: G19-12-074). In each case, mice (n=3/group) were injected intravenously (i.v.) with 3 μg TransIT-complexed (Mirus Bio) EPO mRNAs in a final volume of 200 μL Dulbecco's modified Eagle medium (DMEM). Mice used as controls were injected with TransIT-reagent diluted in DMEM but without RNA. To measure hematocrits and EPO levels in the individual mice that were injected with EPO mRNA capped with I′-6, I′-1, CC114, and CC413 and complexed with TransIT-reagent, 18 μL of blood was collected at the indicated times (FIG. 8B) and centrifuged in Drummond microcaps glass capillary tubes (20 μl volume, Merck, Germany) as described (19). After determination of the hematocrit, capillary tubes were snapped open, and the plasma was collected to measure EPO levels and analyzed for mouse Erythropoietin DuoSet ELISA kit (R&D Systems) according to the manufacturer's instructions. […] EPO RNA containing m1Ψ modifications translated 2-3-fold, 5-fold, and 10-fold more than U-containing mRNAs at 6-24, 48 and 72 hours after injections, respectively. (FIG. 8A). […] To address translation of I′-6-capped mRNA in human primary hepatocytes, EPO level was measured from supernatants transfected using 0.1 μg/well TransIT-formulated I′-6- or CC114-capped uRNA (FIG. 13).

human PBMCs = test: Cytokine/chemokine secretion in human PBMCs (MSD V-PLEX); format: cell-based
Protocol: Human buffy coats from healthy individuals were obtained from the Faculty of Medicine of Johannes Gutenberg University, Mainz and used to isolate peripheral blood mononuclear cells (PBMCs) on a Ficoll-Paque™ PLUS (Cytiva, Marlborough, MA, USA) density gradient. In preparation for mRNA transfection, cryopreserved PBMCs were thawed and seeded into 96-well plates at a density of 5×10^5 cells per well in 190 μL RPMI medium supplemented with 1% non-essential amino acids (NEAA), 1% sodium pyruvate and 10% Fetal Bovine Serum (Merck, Germany). Cells were maintained at 37° C. with 5% CO2 until transfection with 0.5, 1.5, 5.0 and 15 μg/ml lipoplex-formulated EPO mRNA (LPX-RNA), as described in Kranz, L. M., et al. (2016) Nature, 534, 396-401. The complexed RNA (10 μl per well) was added in triplicates and supernatants were collected at 24 h after transfection to perform single cell cytotoxicity assay and to measure the cytokine/chemokine profile. To determine the cell viability and the production of selected cytokines/chemokines, supernatants from human PBMCs transfected with LPX-RNA were subjected to XTT cytotoxicity test using Cell Proliferation Kit II (Sigma-Aldrich) and cytokine/chemokine profile analysis using the Meso Scale Discovery V-PLEX Custom Human Biomarkers Proinflammatory and Chemokine Panel (Meso Scale Diagnostics—MSD, Rockville, MD, USA) according to the manufacturer's instructions, respectively. In regards of cytokine/chemokine profile analysis, a sample dilution of 1:5 (supernatant:MSD diluent) was used in each experiment. The levels of IL-6 (Interleukin 6), TNF-α (Tumor necrosis factor alpha), IL-1 (Interleukin 1 beta), IFN-γ (Interferon gamma), MCP-1 (Monocyte Chemoattractant Protein-1), […] (Macrophage inflammatory protein 1 beta) and IL-10 (Interleukin 10) were quantified 24 h after the mRNA transfection. […] This low immunogenicity can be directly attributed to the nucleoside modifications incorporated into the mRNA. To illustrate this, cells treated with lipid-complexed U-containing mRNA capped with compound I′-1, CC114 and CC413 induced much higher proinflammatory cytokine/chemokine responses even at their lowest dose (0.5 μg/ml) when compared to m1Ψ-modified mRNA (FIG. 6).
To test the effect of the cap types and mRNA 5′end on immunogenicity in human peripheral blood monocyte cells (PBMCs) we compared changes in levels of cytokines and chemokines after application of Lipoplex (LPX)-formulated EPO mRNAs. First, we compared the impact of m1Ψ-mRNA capped with I′-6 containing a UAGU 5′end vs. CC413 (AGAAU 5′end) (FIG. 12). […] Second, we compared capped EPO uRNA with I′-6 or I′-1 (FIG. 14). In this case both mRNAs had the same TAGT 5′end. […] Thus, benefit of I′-6 in decreasing the immunogenicity and thus increasing safety was found when I′-6 was used.

cytokines (IL-6, TNF-α, IL-1β, IFN-γ), compared with I′-1 (human PBMCs; EPO uRNA, same TAGT 5′end, 24 h after application): significantly lower
increase in levels of proinflammatory cytokines and chemokines, compared with CC413 (human PBMCs; LPX-formulated EPO mRNA, across the concentrations tested): less of an increase
MIP-1β, compared with CC413 (human PBMCs; LPX-m1Ψ-mRNA, 0.333 and 1 μg/well (1.7 and 5 μg/ml)): decrease
cytokines (IL-6, TNF-α, IL-1, IFN-γ), compared with CC413 (human PBMCs; LPX-m1Ψ-mRNA, 1 and 3 μg/well (5 and 15 μg/ml)): significant decrease
SMILES: COC1C(OP(=O)(O)OC[C@H]2O[C@@H](c3cn(C)c(=O)[nH]c3=O)C(O)C2O)[C@@H](COP(=O)(O)OP(=O)([O-])OP(=O)(O)OC[C@H]2O[C@@H](n3c[n+](C)c4c(O)nc(N)nc43)C(O)C2OC)O[C@H]1n1cnc2c(N)ncnc21 (stereo partly shown) [I′-6, m^7G(^3′-OMe)pppA(2′-OMe)pm^1Ψ]
hematocrit value at 21 days compared with CC413-capped mRNA (BALB/c mice; 21 days after administration): at the same level as the values of D7 and D14
decrease of hematocrit values from D14 (BALB/c mice; D14 after injection): not observed
hematocrit values (BALB/c mice; up to day 21 after injection): very high and further increased after day 14; also recorded: remained very high level
